Assay results taken from ChEMBL document CHEMBL1135656, “Molecular docking and 3D-QSAR studies on gag peptide analogue inhibitors interacting with human cyclophilin A” (J Med Chem, 2002).
Starred links: 1 amine or outer side, 2 acyl side, 3 side chain; linkers in the order of their positions; H or OH if unused. Non-standard residues stand in square brackets, D forms with d. Residues, ends and D or L forms follow the SMILES beside them. *: point of attachment. Desaminohistidyl = O=C(CCc1c[nH]cn1)*; X1 = c1ccc(C(CCN*)c2ccccc2)cc1; NHPhenethyl = c1ccc(CCN*)cc1; X2 = O=C(C1CCCC1N[*:1])[*:2]; Isovaleryl = CC(C)CC(=O)*; NHBn = c1ccc(CN*)cc1

Target: Peptidyl-prolyl cis-trans isomerase A (Homo sapiens, UniProt P62937)
Assay: In vitro inhibition of human Cyclophilin A/protein interaction.

Chain of Peptidyl-prolyl cis-trans isomerase A (P62937 whole entry): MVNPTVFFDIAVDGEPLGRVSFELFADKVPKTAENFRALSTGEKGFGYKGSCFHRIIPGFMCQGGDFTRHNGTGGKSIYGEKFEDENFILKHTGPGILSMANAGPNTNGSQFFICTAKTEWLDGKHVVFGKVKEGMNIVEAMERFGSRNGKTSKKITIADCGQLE

IC50	Compound
820 µM	CC(=O)N[C@H](C(=O)N[C@@H](Cc1c[nH]cn1)C(=O)N[C@@H](C)C(=O)NCC(=O)N1CCC[C@@H]1C(=O)N[C@@H](C(=O)N[C@@H](C)C(N)=O)c1ccccc1)C(C)C
970 µM	CC(=O)N[C@H](C(=O)N[C@@H](Cc1c[nH]cn1)C(=O)N[C@@H](C)C(=O)NCC(=O)N1CCC[C@@H]1C(=O)N[C@H](C(=O)N[C@@H](C)C(N)=O)c1ccccc1)C(C)C
325 µM	CC[C@H](C)[C@H](NC(=O)[C@@H]1CCCN1C(=O)CNC(=O)[C@H](C)NC(=O)[C@H](Cc1c[nH]cn1)NC(=O)[C@@H](NC(C)=O)C(C)C)C(=O)NCCc1ccccc1 (Ac-VHAGPI-NHPhenethyl)
365 µM	CC[C@H](C)[C@H](NC(=O)[C@@H]1CCCN1C(=O)CNC(=O)[C@H](C)NC(=O)[C@H](Cc1cnc[nH]1)NC(=O)[C@@H](NC(C)=O)C(C)C)C(=O)NCCC(c1ccccc1)c1ccccc1 (Ac-VHAGPI-X1)
680 µM	CC(=O)N[C@H](C(=O)N[C@@H](Cc1c[nH]cn1)C(=O)N[C@@H](C)C(=O)NCC(=O)N1CCC[C@H]1C(=O)NC1CCCC1C(=O)N[C@@H](C)C(N)=O)C(C)C (some centres undefined) (Ac-VHAGP[X2]A-NH2)
2600 µM	CC[C@H](C)[C@H](NC(=O)[C@@H]1CCCN1C(=O)CNC(=O)[C@H](C)NC(=O)CCc1cnc[nH]1)C(=O)N[C@@H](C)C(N)=O (Desaminohistidyl-AGPIA-NH2)
165 µM	CC[C@H](C)[C@H](NC(=O)[C@@H]1CCCN1C(=O)CNC(=O)[C@H](C)NC(=O)[C@H](Cc1cnc[nH]1)NC(=O)CC(C)C)C(=O)N[C@@H](C)C(N)=O (Isovaleryl-HAGPIA-NH2)
90 µM	CC(C)CC(=O)N[C@@H](Cc1cnc[nH]1)C(=O)N[C@@H](C)C(=O)NCC(=O)N1CCC[C@H]1C(=O)NC1CCCC1C(=O)NCc1ccccc1 (some centres undefined) (Isovaleryl-HAGP[X2]-NHBn)
2000 µM	H-HAGPIA-OH
